Data: patent publication US10316035B2, “Triazolopyridine inhibitors of myeloperoxidase” (BRISTOL-MYERS SQUIBB COMPANY, priority 2015, dated 2019)

Tests used:
[1] = molecular target: T1, EPX (eosinophil peroxidase) (Homo sapiens, UniProt P11678); assay: EPX bromination assay; type: biochemical
T1 construct: purchased Lee Biosolutions 342-60
T1 sequence (P11678 140-715): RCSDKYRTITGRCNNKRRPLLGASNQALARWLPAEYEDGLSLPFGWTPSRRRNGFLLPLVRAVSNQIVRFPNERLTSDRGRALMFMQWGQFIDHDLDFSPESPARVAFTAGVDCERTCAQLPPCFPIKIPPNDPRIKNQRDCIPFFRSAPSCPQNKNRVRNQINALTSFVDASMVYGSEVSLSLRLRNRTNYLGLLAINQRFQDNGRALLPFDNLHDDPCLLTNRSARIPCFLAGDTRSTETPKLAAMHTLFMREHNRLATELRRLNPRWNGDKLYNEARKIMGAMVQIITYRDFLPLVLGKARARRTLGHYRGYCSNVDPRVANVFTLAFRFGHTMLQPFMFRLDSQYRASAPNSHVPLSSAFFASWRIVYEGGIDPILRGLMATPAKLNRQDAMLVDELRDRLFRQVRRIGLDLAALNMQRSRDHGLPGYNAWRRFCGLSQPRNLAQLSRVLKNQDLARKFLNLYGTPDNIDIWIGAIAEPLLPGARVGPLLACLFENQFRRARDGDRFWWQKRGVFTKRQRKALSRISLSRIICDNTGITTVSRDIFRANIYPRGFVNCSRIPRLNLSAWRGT
Method: [formula] where A=minimal Y value (activity level of inhibited sample), B=maximal Y value (activity level of uninhibited sample), C=Log IC50, D=Hill Slope, x=concentration of inhibitor. EPX Bromination Assay
EPX bromination activity was measured in 100 mM KPi (pH 7.4) by monitoring the H2O2 catalyzed formation of 3-bromo tyrosine from tyrosine and potassium bromide. A 50 μl mixture of 0.6 μM EPX (Lee Biosolutions Cat#342-60) was added to 100 nL inhibitor in 100% DMSO in a 384 well REMP plate. Enzyme and compound were preincubated for ten minutes at room temperature.
After the ten minute preincubation of enzyme and inhibitor, 25 μL of a mixture containing 400 μM tyrosine and 1200 μM potassium bromide was added to the plate containing enzyme and inhibitor, followed by the addition of 25 μl of 20 μM H2O2. The reaction was allowed to proceed for 15 minutes, at which time it was quenched with 10 μL of 20% TCA. The final concentrations of all components were 0.3 μM EPX, 100 μM tyrosine, […], 5 μM H2O2, 0.1% DMSO, 2.0% TCA.
IC50 values were determined by determining the peak areas of 3-bromotyrosine present at the end of the 15 minute reaction and fitting the data to:
[formula] where A=minimal Y value (activity level of inhibited sample), B=maximal Y value (activity level of uninhibited sample), C=Log IC50, D=Hill Slope, x=concentration of inhibitor.
Reversed-phase analysis was performed on a Waters Acquity Ultra Performance LC system using an Acquity UPLC BEH C18 […], 2.1×50 mm analytical column. The column was maintained at 60° C. Samples were eluted using a gradient of 0%-100% B over 2.5 minutes, followed by equilibration with 100% A for 1 minute where A consisted of 0.1% TFA and B consisted of 90% MeOH/0.1% TFA at a flow rate of 0.6 mL/min. The retention time of 3-bromo tyrosine was 1.22 min.

myeloperoxidase (MPO) = molecular target: T2, myeloperoxidase (MPO) (Homo sapiens, UniProt P05164); assay: MPO peroxidation assay (Amplex Red assay); type: biochemical; conditions: MPO peroxidation, potency range class; read-out: Amplex Red IC50
T2 sequence (P05164 49-745): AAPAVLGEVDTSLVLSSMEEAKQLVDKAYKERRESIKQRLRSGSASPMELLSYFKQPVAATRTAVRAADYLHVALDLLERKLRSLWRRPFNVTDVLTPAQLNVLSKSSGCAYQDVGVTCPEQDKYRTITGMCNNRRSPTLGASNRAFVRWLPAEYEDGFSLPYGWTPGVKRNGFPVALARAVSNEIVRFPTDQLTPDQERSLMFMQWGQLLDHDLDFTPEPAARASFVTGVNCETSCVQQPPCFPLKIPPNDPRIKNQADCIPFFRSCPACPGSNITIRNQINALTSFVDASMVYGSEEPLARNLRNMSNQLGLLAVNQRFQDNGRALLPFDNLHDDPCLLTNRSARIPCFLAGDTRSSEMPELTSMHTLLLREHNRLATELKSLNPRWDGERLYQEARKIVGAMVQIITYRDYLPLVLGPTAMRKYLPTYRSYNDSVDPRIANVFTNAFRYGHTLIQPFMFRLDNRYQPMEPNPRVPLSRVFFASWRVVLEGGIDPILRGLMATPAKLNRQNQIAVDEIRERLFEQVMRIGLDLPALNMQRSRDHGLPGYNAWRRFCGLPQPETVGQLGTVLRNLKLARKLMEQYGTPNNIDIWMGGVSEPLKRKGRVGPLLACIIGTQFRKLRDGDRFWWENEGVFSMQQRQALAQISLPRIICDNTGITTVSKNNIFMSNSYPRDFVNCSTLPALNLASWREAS
Outline: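 MPO (200 pM) with 40 nM H2O2 was preincubated 10 min at room temperature with inhibitor in 100 mM KPi pH 7.4. A mix of Amplex Red (200 μM) and H2O2 (10 mM) was then added and resorufin fluorescence read kinetically for 15 min. Slopes over 180–540 s gave % inhibition and IC50 via a four-parameter Hill fit.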

| IC50 [1] | IC50 (myeloperoxidase (MPO)) | SMILES |
| --- | --- | --- |
| 80 nM | 1 to 100 nM | Nc1cc(OCc2cccc(OCc3ccccc3)c2)c2nn[nH]c2n1 [Example 2, 7-(3-(Benzyloxy)benzyloxy)-3H-[1,2,3]triazolo[4,5-b]pyridin-5-amine] |
| 10 nM | 1 to 100 nM | Nc1cc(OCc2cccc(OC3CC3)c2)c2nn[nH]c2n1 [Example 6, 7-(3-Cyclopropoxybenzyloxy)-3H-[1,2,3]triazolo[4,5-b]pyridin-5-amine] |
| 40 nM | 1 to 100 nM | Nc1cc(OCc2cccc(-c3ncccn3)c2)c2nn[nH]c2n1 [Example 8, 7-(3-(Pyrimidin-2-yl)benzyloxy)-3H-[1,2,3]triazolo[4,5-b]pyridin-5-amine] |
